27 molecules from patent US11518758B2, “Heteroarylaminopyrimidine amide autophagy inhibitors and methods of use thereof” (Deciphera Pharmaceuticals, LLC, priority 2019, dated 2022) can be followed below.

Assay [1] has as its target T1, ULK1 kinase (Homo sapiens, UniProt O75385, E37A/K38A).
T1 construct: (residues 1-283; ID NO: 2); purchased Beryllium
T1 sequence (O75385 1-283 E37A/K38A): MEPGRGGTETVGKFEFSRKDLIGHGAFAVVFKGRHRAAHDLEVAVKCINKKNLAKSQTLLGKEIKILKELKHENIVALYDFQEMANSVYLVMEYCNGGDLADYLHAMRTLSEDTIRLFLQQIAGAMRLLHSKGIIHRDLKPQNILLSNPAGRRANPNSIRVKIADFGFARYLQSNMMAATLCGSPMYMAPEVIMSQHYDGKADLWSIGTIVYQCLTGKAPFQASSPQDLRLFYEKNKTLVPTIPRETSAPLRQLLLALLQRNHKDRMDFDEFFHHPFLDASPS
Kind of assay: Biochemical assay for ULK1.3 (coupled pyruvate kinase/lactate dehydrogenase assay). Particulars: 0.1 nM ULK1 (from Beryllium), peptide substrate, 1 mM ATP. On the procedure: Example 175. Biochemical Assay for ULK1.3
Activity of ULK1 kinase was determined spectroscopically using a coupled pyruvate kinase/lactate dehydrogenase assay that continuously monitors the ATP hydrolysis-dependent oxidation of NADH (e.g., Schindler et al. Science (2000) 289: 1938-1942). Assays were conducted in 384-well plates (100 uL final volume) using 0.1 nM ULK1 (from Beryllium), 0.075 mM peptide substrate (YANWLAASIYLDGKKK (SEQ ID NO: 5)), 1.5 units pyruvate kinase, 2.1 units lactate dehydrogenase, 1 mM phosphoenol pyruvate, 0.28 mM NADH and 1 mM ATP in assay buffer (100 mM Tris, pH 7.5, 15 mM MgCl2, 0.5 mM DTT, 0.004% (w/v) BSA, and 0.004% Triton X-100). Inhibition of ULK1 was measured by adding serial diluted test compound (final assay concentration of 1% DMSO). A decrease in absorption at 340 nm was monitored continuously for 6 hours at 30° C. on a multi-mode microplate reader (BioTek). The reaction rate was calculated using the 2-3 h time frame. The reaction rate at each concentration of compound was converted to percent inhibition using controls (i.e. reaction with no test compound and reaction with a known inhibitor) and IC50 values were calculated using software routines in Prism (GraphPad software).

Assay [2] addresses T2, LRRK2 kinase (Homo sapiens, UniProt Q5S007).
T2 construct: purchased Thermo Fisher
The assay can be described thus: Biochemical assay for LRRK2 (coupled pyruvate kinase/lactate dehydrogenase assay). As to conditions: 26.4 nM LRRK2 (residues 970-2528), 0.1 mM peptide substrate, 1 mM ATP. On the procedure: Example 182. Biochemical Assay for LRRK2 (SEQ. ID NO. 4)
Activity of LRRK2 kinase was determined spectroscopically using a coupled pyruvate kinase/lactate dehydrogenase assay that continuously monitors the ATP hydrolysis-dependent oxidation of NADH (e.g., Schindler et al. Science (2000) 289: 1938-1942). Assays were conducted in 384-well plates (100 uL final volume) using 26.4 nM LRRK2 (Thermo Fisher), 0.1 mM peptide substrate (RLGRDKYKTLRQIRQ (SEQ ID NO: 6)), 1.5 units pyruvate kinase, 2.1 units lactate dehydrogenase, 1 mM phosphoenol pyruvate, 0.28 mM NADH and 1 mM ATP in assay buffer (100 mM Tris, pH 7.5, 15 mM MgCl2, 0.5 mM DTT, 0.004% (w/v) BSA, and 0.004% Triton X-100). Inhibition of LRRK2 was measured by adding serial diluted test compound (final assay concentration of 1% DMSO). A decrease in absorption at 340 nm was monitored continuously for 6 hours at 30° C. on a multi-mode microplate reader (BioTek). The reaction rate was calculated using the 2-3 h time frame. The reaction rate at each concentration of compound was converted to percent inhibition using controls (i.e. reaction with no test compound and reaction with a known inhibitor) and IC50 values were calculated using software routines in Prism (GraphPad software).

T2 sequence (Q5S007 with tags, fused parts or gaps): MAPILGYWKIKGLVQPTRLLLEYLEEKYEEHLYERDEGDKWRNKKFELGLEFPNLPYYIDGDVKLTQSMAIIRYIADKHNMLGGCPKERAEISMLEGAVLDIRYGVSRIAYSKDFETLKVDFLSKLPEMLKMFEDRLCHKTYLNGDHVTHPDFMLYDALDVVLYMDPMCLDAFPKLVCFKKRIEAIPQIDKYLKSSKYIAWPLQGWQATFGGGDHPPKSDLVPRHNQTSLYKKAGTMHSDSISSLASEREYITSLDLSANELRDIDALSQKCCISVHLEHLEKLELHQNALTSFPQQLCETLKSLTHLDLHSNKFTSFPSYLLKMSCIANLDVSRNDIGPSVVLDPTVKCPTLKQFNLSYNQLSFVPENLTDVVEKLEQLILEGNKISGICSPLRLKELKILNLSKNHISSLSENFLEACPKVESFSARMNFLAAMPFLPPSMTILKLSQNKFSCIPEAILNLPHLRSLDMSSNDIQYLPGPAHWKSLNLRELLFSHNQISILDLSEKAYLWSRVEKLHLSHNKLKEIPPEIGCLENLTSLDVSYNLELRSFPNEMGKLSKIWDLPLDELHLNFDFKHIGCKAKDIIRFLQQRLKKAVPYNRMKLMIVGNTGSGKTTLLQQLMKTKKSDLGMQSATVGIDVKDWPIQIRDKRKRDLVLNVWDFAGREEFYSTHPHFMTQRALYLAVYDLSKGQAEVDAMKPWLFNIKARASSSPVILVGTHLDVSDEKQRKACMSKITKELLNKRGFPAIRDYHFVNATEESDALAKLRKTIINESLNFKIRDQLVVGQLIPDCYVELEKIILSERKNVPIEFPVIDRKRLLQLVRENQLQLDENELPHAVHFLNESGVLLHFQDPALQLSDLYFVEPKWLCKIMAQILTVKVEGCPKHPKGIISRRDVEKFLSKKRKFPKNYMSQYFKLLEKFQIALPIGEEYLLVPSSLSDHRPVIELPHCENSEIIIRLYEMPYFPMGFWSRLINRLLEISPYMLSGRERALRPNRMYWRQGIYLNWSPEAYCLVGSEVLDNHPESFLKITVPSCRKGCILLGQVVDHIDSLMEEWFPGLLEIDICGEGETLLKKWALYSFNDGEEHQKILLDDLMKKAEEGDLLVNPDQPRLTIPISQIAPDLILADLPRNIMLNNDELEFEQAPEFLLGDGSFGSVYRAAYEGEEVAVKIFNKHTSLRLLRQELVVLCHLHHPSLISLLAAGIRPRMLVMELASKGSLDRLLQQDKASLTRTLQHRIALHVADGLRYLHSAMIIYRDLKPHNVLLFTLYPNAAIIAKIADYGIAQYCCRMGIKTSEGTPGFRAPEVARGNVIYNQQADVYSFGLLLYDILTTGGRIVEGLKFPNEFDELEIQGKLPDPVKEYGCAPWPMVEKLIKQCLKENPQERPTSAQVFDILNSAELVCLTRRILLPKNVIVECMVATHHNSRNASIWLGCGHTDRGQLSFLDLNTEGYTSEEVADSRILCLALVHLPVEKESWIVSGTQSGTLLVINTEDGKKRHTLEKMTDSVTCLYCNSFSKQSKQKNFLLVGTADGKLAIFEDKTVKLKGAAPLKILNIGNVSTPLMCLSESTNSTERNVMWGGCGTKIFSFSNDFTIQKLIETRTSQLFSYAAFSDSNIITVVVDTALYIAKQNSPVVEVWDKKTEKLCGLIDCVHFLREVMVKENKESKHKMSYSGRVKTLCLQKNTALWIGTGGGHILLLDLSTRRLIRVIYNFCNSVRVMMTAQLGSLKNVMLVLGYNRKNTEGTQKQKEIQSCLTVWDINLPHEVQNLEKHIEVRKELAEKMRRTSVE

As for `Cc1nn(C(C)(C)C(N)=O)cc1Nc1ncc(C(F)(F)F)c(NCCCN2CCCCC2=O)n1` [Example 67], the IC50 in assay [1] is above 500 nM; in assay [2] it was 1 to 100 nM.
On the same counts, the results for `CCc1nn(C2CCN(C(C)C)CC2)cc1Nc1ncc(Cl)c(NCCCN2CCCOC2=O)n1` [Example 73] are 100 to 500 nM and 300 to 600 nM.
Molecule `Cc1nn(C2CCN(C(C)C)CC2)cc1Nc1ncc(C2CC2)c(NCCCN2CCOCC2=O)n1` [Example 75] gave an IC50 in assay [1] above 500 nM.
Turning to `CCc1nn(C2CCN(C(C)C)CC2)cc1Nc1ncc(C2CC2)c(NCCCN2CCOCC2=O)n1` [Example 76], the IC50 in assay [1] was above 500 nM; in assay [2], above 600 nM.
On the same counts, the results for `Cc1nn([C@@H]2CCN(C)C2)cc1Nc1ncc(Cl)c(NCCCN2CCCOCC2=O)n1` [Example 113] are 100 to 500 nM and 100 to 300 nM.
For `Cc1nn(C2CCN(C(C)C)CC2)cc1Nc1ncc(C2CC2)c(NCCCN2CCCOCC2=O)n1` [Example 114], in that order: above 500 nM and above 600 nM.
For `Cc1nn(CCCN2CCOCC2)cc1Nc1ncc(C2CC2)c(NCCCN2CCCOCC2=O)n1` [Example 115], in that order: above 500 nM and above 600 nM.
As for `Cc1nn(CCN(C)C)cc1Nc1ncc(C2CC2)c(NCCCN2CCCOCC2=O)n1` [Example 116], the results for the IC50 in assay [1] and in assay [2] were above 500 nM and above 600 nM, respectively.
For the molecule `Cc1nn(CCN(C)C)cc1Nc1ncc(C(F)(F)F)c(NCCCN2CCCOCC2=O)n1` [Example 117], the IC50 in assay [1] is 25 to 100 nM.
Same read-out and setting: to `CCc1nn(C2CCN(C)CC2)cc1Nc1ncc(C2CC2)c(NCCCN2CCCOCC2=O)n1` [Example 119] belongs above 500 nM.
With `Cc1nn(CCCN2CCOCC2)cc1Nc1ncc(Cl)c(NCCCN2CCCOCC2=O)n1` [Example 120], the IC50 in assay [1] was above 500 nM.
The same measure, in the same setting: for `Cc1nn(CCCN2CCOCC2)cc1Nc1ncc(Br)c(NCCCN2CCCOCC2=O)n1` [Example 121] the value was 100 to 500 nM.
For the molecule `Cc1nn(CCN(C)C)cc1Nc1ncc(Br)c(NCCCN2CCCOCC2=O)n1` [Example 122], the IC50 in assay [1] was 100 to 500 nM; in assay [2], 100 to 300 nM.
For `Cc1nn(CCN(C)C)cc1Nc1ncc(Cl)c(NCCCN2CCCOCC2=O)n1` [Example 123], in that order: above 500 nM and above 600 nM.
On the same counts, the results for `Cc1nn(C(C)(C)C(N)=O)cc1Nc1ncc(C(F)(F)F)c(NCCCN2CCCOCC2=O)n1` [Example 125, 2-methyl-2-(3-methyl-4-((4-((3-(3-oxo-1,4-oxazepan-4-yl)propyl)amino)-5-(trifluoromethyl)pyrimidin-2-yl)amino)-1H-pyrazol-1-yl)propanamide] are above 500 nM and 1 to 100 nM.
Consider `Cc1cn(C2CCN(C)CC2)nc1Nc1ncc(C(F)(F)F)c(NCCCN2CCCOC2=O)n1` [Example 126], for which the values for the IC50 in assay [1] and in assay [2] were above 500 nM and above 600 nM, respectively.
For `CCc1nn(C2CCN(C)CC2)cc1Nc1ncc(C(F)(F)F)c(NCCCN2CCOCCC2=O)n1` [Example 136], the IC50 in assay [1] was in the range of 1 to 25 nM.
Same read-out and setting: for `Cc1nn(CCN(C)C)cc1Nc1ncc(C(F)(F)F)c(NCCCN2CCOCCC2=O)n1` [Example 137] the value was 100 to 500 nM.
As for `Cc1nn(CCCN2CCOCC2)cc1Nc1ncc(C2CC2)c(NCCCN2CCOCCC2=O)n1` [Example 139], the IC50 in assay [1] is above 500 nM; in assay [2], above 600 nM.
For `Cc1nn(CCN(C)C)cc1Nc1ncc(C2CC2)c(NCCCN2CCOCCC2=O)n1` [Example 140], in that order: above 500 nM and above 600 nM.
For `Cc1nn(C2CCN(C)CC2)cc1Nc1ncc(C2CC2)c(NCCCN2CCOCCC2=O)n1` [Example 141], in that order: 100 to 500 nM and above 600 nM.
In the case of `CCN1CCC(n2cc(Nc3ncc(C4CC4)c(NCCCN4CCOCCC4=O)n3)c(C)n2)CC1` [Example 142], the IC50 in assay [1] is above 500 nM.
The same measure, in the same setting: for `Cc1nn(C2CCN(C(C)C)CC2)cc1Nc1ncc(Cl)c(NCCCN2CCOCCC2=O)n1` [Example 143] the value was 100 to 500 nM.
Still for that read-out and setting: to `Cc1nn(CCN(C)C)cc1Nc1ncc(Br)c(NCCCN2CCOCCC2=O)n1` [Example 144] belongs 100 to 500 nM.
Take `Cc1nn(C(C)(C)C(N)=O)cc1Nc1ncc(C(F)(F)F)c(NCCCN2CCOCCC2=O)n1` [Example 145]: the IC50 in assay [1] lay in the range of 100 to 500 nM; in assay [2], 1 to 100 nM.
On to `CCN(CC)CCn1cc(Nc2ncc(C(F)(F)F)c(NCCCN3CCOCCC3=O)n2)c(C)n1` [Example 146], for which the IC50 in assay [1] was in the range of 100 to 500 nM.
For `Cc1nn(C(C)(C)C#N)cc1Nc1ncc(C(F)(F)F)c(NCCCN2CCCOCC2=O)n1` [Example 172, 2-methyl-2-(3-methyl-4-((4-((3-(3-oxo-1,4-oxazepan-4-yl)propyl)amino)-5-(trifluoromethyl)pyrimidin-2-yl)amino)-1H-pyrazol-1-yl)propanenitrile], the results for the IC50 in assay [1] and in assay [2] were 100 to 500 nM and 1 to 100 nM, respectively.
